Here are results for one compound from patent US5470873A, “Diabetes prevention and treatment using gamma-pyrones” (University Technologies International, Inc., priority 1994, dated 1995).

“Also recorded” adds a separate entry of the source.

The nature of test [1]: Blood glucose levels in NOD mice (glucose oxidase method). It counts as in vivo. The conditions noted are these: NOD mice. The method, then: NOD mice were dosed with maltol to evaluate its effect on the pathogenesis of type I diabetes. Mice received 5 mg maltol/mouse every other day from age 2 weeks until they were 20 weeks old. Maltol extracted from ginseng as described in Example 2 was used for the first 10 weeks, then maltol purchased from Sigma Co., St. Louis, MO was used thereafter. The mice were kept until they were 35 weeks old. Urine glucose was measured at 3-day intervals from 10 to 35 weeks of age. Urinary glucose and ketone levels were determined using Diastix and Ketostix reagent slips (Miles, Ontario, Canada). Individual mice were classified as being diabetic on the basis of positive glycosuria^38. […] In contrast, 78% of age-matched control mice (22 mice) spontaneously developed autoimmune diabetes. At 35 weeks of age, fasting (8 hours of fasting) and non-fasting blood glucose levels were measured. Blood was obtained from the retro-orbital venous plexus of fasting and nonfasting NOD mice. Glucose levels were measured enzymatically by the glucose oxidase method with o-dianisidine dihydrochloride as the reactive dye ^39-41 . The mean nonfasting blood glucose level of 35 ICR mice (nondiabetic control mice; NOD mice were derived from ICR mice) was 149±27 mg/dl. Any non-fasting mouse with a blood glucose level greater than 230 mg/dl (3 SD above the mean) was scored as diabetic. The mean fasting blood glucose level of 38 ICR mice was 137±28 mg/dl. Any fasting mouse with a blood glucose level greater than 221 mg/dl (3 SD above the mean) was scored as diabetic.

Test [2] in a line: Pancreatic insulin content (immunoreactive insulin, radioimmunoassay) in NOD mice. It counts as in vivo. The conditions noted are these: NOD mice. How it is done: Insulin was extracted from the pancreas of non-obese diabetic (NOD) mouse by known methods ^33,34. Briefly, deep frozen pancreatic tissue (50% of each pancreas) was placed into phosphate buffered saline (PBS) and then extraction solution A (380 ml absolute alcohol, 20 ml H2 O, 8 ml concentrated HCl and some drops of alcoholic phenol red) was added. This mixture was homogenized with polytron type PT 10-20-[…] in glass tubes (15×125 mm) for 30 seconds in position 5. The homogenized material in the tubes was incubated at 4° C. for 10 hours. At the end of the incubation period, the homogenized material was centrifuged at 800 g for 5 minutes for clarification. The supernatant was saved. The pellet was re-extracted with 1 ml of extraction solution B (356 ml absolute alcohol, 124 ml H2 O and 7.5 ml HCl). The pellet in extraction solution B was incubated for 4 hours at 4° C. and then homogenized with a polytron as described above. The homogenized material was centrifuged at 800 g for 5 minutes. The supernatant was pooled with the supernatant from the first extraction. The pooled supernatant was neutralized with concentrated NH40 H (about 10 μl ) until the phenol red turned to purple. The neutralized supernatant was precipitated at 4° C. and then centrifuged at 800 g for 5 min. The supernatant, which contains insulin, was used for the measurement of insulin by radioimmunoassay. The concentration of immunoreactive insulin (IRI) in the pancreas from DPD-treated and untreated NOD mice was measured by radioimmunoassay techniques ^42-44 using mouse insulin as a standard. Briefly, the extracted samples from NOD mice were mixed with […], and anti-insulin antibody. The mixed materials were incubated for 2 hours at room temperature. At the end of the incubation period, anti-guinea pig IgG raised in sheep was added and the mixture was incubated for 30 minutes at room temperature. At the end of the incubation, the samples were centrifuged at 1500 g for 10 minutes. The supernatant was completely removed. The radioactivity of the pellets was measured. The percent of activity was determined by the following formula: [formula] On the basis of % activity in standards, a standard curve was constructed. The concentration of each unknown sample from maltol-treated or untreated NOD pancreas was read on the basis of the standard curve. […] The maltol-treated mice have insulin levels that are similar to the non-diabetic, untreated animals. About 75% of the maltol-treated mice have insulin levels over 80 μg/g pancreas and about 25% have insulin levels between 55-75 μg/g pancreas.

In the case of `Cc1occc(=O)c1O` [DPD, maltol], in test [1], the “Hyperglycemia / clinical diabetes by blood glucose (in words)” value is listed as “do not exhibit hyperglycemia; also recorded: prevents clinical diabetes”. In addition, the “Pancreatic insulin / protection from beta cell destruction (in words)” value in test [2] is “prevents depression of pancreatic insulin levels”.
